Reference: ChEMBL document CHEMBL6096732 (J Med Chem, 2025)
The source made the active and inactive calls. No cut-off for these calls is given here.

Legend:
Histone deacetylase 5 = Histone deacetylase 5 (Homo sapiens, UniProt Q9UQL6); assay: Inhibition of recombinant HDAC5 (unknown origin) using Boc-Lys(trifluoroacetyl)-AMC as substrate preincubated for 1 hr followed by substrate addition and measured after 2 hrs by fluorescence based micro plate reader analysis
[1] = molecular target: Protein deacetylase HDAC6 (Homo sapiens, UniProt Q9UBN7); assay: Inhibition of recombinant full length human HDAC6 using Boc-Lys(acetyl)-AMC as substrate preincubated for 1 hr followed by substrate addition and measured after 2 hrs by fluorescence based micro plate reader analysis
Chain of Protein deacetylase HDAC6 (Q9UBN7 whole entry): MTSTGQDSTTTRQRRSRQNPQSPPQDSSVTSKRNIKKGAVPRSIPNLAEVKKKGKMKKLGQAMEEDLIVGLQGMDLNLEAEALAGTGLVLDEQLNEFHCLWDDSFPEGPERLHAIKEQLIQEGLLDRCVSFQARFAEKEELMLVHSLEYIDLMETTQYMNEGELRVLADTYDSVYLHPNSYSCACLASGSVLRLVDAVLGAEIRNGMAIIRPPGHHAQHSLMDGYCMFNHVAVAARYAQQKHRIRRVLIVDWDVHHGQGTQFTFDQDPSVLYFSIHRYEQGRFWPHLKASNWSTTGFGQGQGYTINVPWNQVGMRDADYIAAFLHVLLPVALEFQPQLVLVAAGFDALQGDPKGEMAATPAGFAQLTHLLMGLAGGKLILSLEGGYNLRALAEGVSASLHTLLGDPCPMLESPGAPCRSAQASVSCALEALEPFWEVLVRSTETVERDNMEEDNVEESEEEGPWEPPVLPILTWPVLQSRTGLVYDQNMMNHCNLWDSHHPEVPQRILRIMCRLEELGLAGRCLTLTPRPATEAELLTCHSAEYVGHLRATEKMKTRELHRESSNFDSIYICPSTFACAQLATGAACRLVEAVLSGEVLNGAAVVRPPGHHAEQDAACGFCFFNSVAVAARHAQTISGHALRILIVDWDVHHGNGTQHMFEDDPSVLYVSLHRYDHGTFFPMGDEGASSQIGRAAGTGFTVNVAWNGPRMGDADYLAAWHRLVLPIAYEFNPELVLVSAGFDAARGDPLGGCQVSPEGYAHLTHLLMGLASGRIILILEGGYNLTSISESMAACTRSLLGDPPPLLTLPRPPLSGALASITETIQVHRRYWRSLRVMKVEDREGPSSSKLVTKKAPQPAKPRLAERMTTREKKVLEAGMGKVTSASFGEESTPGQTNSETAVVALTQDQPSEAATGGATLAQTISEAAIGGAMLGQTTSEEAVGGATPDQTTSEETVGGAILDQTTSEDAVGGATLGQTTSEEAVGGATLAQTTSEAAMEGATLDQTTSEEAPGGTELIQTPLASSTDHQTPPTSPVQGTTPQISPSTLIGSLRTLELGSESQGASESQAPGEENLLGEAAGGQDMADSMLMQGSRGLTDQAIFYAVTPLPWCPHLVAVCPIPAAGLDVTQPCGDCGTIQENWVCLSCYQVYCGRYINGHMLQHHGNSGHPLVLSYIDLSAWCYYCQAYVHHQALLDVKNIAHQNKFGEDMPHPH

Histone deacetylase 11 = Histone deacetylase 11 (Homo sapiens, UniProt Q96DB2); assay: Inhibition of recombinant HDAC11 (unknown origin) preincubated for 1 hr followed by substrate addition and measured after 2 hrs by fluorescence based micro plate reader analysis
Chain of Histone deacetylase 11 (Q96DB2 whole entry): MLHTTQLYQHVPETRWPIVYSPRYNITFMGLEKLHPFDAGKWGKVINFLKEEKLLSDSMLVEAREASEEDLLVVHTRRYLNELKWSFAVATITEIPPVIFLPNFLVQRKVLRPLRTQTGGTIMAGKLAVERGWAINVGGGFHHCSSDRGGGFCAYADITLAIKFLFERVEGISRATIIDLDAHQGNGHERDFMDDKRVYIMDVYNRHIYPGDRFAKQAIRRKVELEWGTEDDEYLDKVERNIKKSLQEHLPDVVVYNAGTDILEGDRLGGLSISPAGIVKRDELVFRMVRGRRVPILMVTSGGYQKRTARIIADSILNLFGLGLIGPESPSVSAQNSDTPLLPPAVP

[2] = Ratio of AUC (0 to t) to AUC (0 to infinity) in male Sprague-Dawley rat at 20 mg/kg, po measured after 12 hrs by LC-MS/MS analysis; type: ADME, organism-based; conditions: in vivo
B16-F10 [3] = assay: Cell cycle arrest in mouse B16-F10 cells assessed as accumulation of cells in G1 phase incubated for 48 hrs by RNase A/PI staining based flow cytometric analysis; type: functional; conditions: dose 5-20 µM
[4] = molecular target: T1, Histone deacetylase 3 (Mus musculus) (UniProt O88895); assay: Inhibition of HDAC3 in mouse B16-F10 cells assessed as increase in histone H3 acetylation level at 5 to 20 uM incubated for 24 hrs by Western blot analysis; type: cell-based; conditions: dose 5-20 µM
T1 sequence (whole entry): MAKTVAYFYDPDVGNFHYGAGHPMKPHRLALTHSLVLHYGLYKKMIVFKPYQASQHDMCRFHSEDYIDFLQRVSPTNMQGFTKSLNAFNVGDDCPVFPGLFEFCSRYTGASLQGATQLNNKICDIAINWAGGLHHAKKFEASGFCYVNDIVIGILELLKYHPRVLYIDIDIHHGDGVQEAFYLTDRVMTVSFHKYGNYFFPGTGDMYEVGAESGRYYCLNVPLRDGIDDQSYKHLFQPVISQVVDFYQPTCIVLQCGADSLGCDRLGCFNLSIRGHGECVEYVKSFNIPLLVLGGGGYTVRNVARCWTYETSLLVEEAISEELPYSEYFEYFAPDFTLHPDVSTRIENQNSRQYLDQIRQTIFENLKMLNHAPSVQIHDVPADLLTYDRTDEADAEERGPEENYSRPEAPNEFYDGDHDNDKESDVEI

[5] = molecular target: Programmed cell death 1 ligand 1 (Mus musculus) (UniProt Q9EP73); assay: (§1) Induction of PD-L1 degradation in mouse B16-F10 cells assessed as decrease in PD-L1 protein level incubated for 24 hrs by Western blot analysis; type: cell-based
Chain of Programmed cell death 1 ligand 1 (Mus musculus) (Q9EP73 whole entry): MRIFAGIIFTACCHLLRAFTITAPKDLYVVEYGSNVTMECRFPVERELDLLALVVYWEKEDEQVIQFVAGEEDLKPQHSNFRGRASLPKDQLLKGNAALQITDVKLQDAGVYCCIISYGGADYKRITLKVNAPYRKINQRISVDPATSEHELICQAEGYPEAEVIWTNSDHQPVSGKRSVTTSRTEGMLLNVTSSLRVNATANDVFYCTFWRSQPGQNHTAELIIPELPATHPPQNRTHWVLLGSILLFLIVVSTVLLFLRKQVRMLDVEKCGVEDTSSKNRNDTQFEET

[6] = molecular target: Programmed cell death 1 ligand 1 (Mus musculus, UniProt Q9EP73); assay: as §1; type: cell-based
Chain of Programmed cell death 1 ligand 1 (Q9EP73 whole entry): as above

[7] = molecular target: Programmed cell death 1 ligand 1 (Mus musculus) (UniProt Q9EP73); assay: Induction of PD-L1 degradation in mouse B16-F10 cells assessed as decrease in PD-L1 protein level at 5 uM incubated for 24 hrs by DAPI staining based immunofluorescence analysis; type: cell-based
B16-F10 [8] = assay: Upregulation of cathepsin B expression in mouse B16-F10 cells at 5 to 20 uM incubated for 24 hrs by Western blot analysis; type: functional, cell-based; conditions: dose 5-20 µM
B16-F10 [9] = assay: Induction of DNA damage in mouse B16-F10 cells assessed as increase in gamma-H2AX expression at 2 uM incubated for 24 hrs in presence of olaparib by Western blot analysis; type: functional, cell-based
4T1 [10] = assay: Downregulation of PARP1 expression in mouse 4T1 cells at 5 uM by DAPI staining based immunofluorescence analysis; type: functional, cell-based
[11] = AUC (0 to infinity) in male Sprague-Dawley rat at 2 mg/kg, iv measured after 12 hrs by LC-MS/MS analysis; type: ADME, organism-based; conditions: in vivo
[12] = Ratio of AUC (0 to t) to AUC (0 to infinity) in male Sprague-Dawley rat at 2 mg/kg, iv measured after 12 hrs by LC-MS/MS analysis; type: ADME, organism-based; conditions: in vivo
[13] = AUMC (0 to t) in male Sprague-Dawley rat at 2 mg/kg, iv measured after 12 hrs by LC-MS/MS analysis; type: ADME, organism-based; conditions: in vivo
[14] = Cmax in male Sprague-Dawley rat at 2 mg/kg, iv measured after 12 hrs by LC-MS/MS analysis; type: ADME, organism-based; conditions: in vivo
[15] = AUC (0 to infinity) in male Sprague-Dawley rat at 20 mg/kg, po measured after 12 hrs by LC-MS/MS analysis; type: ADME, organism-based; conditions: in vivo
[16] = MRT (0 to infinity) in male Sprague-Dawley rat at 20 mg/kg, po measured after 12 hrs by LC-MS/MS analysis; type: ADME, organism-based; conditions: in vivo
[17] = VRT (0 to t) in male Sprague-Dawley rat at 20 mg/kg, po measured after 12 hrs by LC-MS/MS analysis; type: ADME, organism-based; conditions: in vivo
[18] = Half-life in male Sprague-Dawley rat at 20 mg/kg, po measured after 12 hrs by LC-MS/MS analysis; type: ADME, organism-based; conditions: in vivo
[19] = Cmax in male Sprague-Dawley rat at 20 mg/kg, po measured after 12 hrs by LC-MS/MS analysis; type: ADME, organism-based; conditions: in vivo
[20] = Oral bioavailability in male Sprague-Dawley rat at 20 mg/kg measured after 12 hrs by LC-MS/MS analysis; type: ADME, organism-based; conditions: in vivo
B16-F10 [21] = assay: Antitumor activity against mouse B16-F10 cells implanted in male C57BL/6 mouse model assessed as tumor growth inhibition at 50 mg/kg, po administered once daily via gavage for 14 days relative to control; type: functional; conditions: B16-F10, 336 h, time 14 day, read-out: TGI
B16-F10 [22] = assay: Synergistic antitumor activity against mouse B16-F10 cells implanted in male C57BL/6 mouse model assessed as tumor growth inhibition at 50 mg/kg, po co-administered with NP-19 as once daily dosage via gavage for 14 days relative to control; type: functional; conditions: B16-F10, 336 h, time 14 day, read-out: TGI
[23] = Toxicity in male C57BL/6 mouse implanted with mouse B16-F10 cells assessed as histopathological changes in heart at 50 mg/kg, po administered once daily for 14 days by HandE staining based microscopic analysis; type: organism-based; conditions: in vivo, 336 h, time 14 day
Mus musculus = assay: Immunomodulatory activity in male C57BL/6 mouse model implanted with mouse B16-F10 cells assessed as increase in CD3+ CD4+ T cells in tumor at 50 mg/kg, po co-administered with NP-19 as once daily dosage via gavage for 14 days by flow cytometric analysis (reference value: 3.1 %); type: functional; conditions: time 14 day
4T1 [24] = assay: Antitumor activity against mouse 4T1 cells implanted in female BALB/c mouse model assessed as induction of DNA damage by measuring increase in gamma-H2AX expression in tumor administrated orally as once daily dose via gavage for 14 days by Western blot analysis; type: functional, cell-based; conditions: route po, time 14.0 day
4T1 [25] = assay: Antitumor activity against mouse 4T1 cells implanted in female BALB/c mouse model assessed as decrease in PAPR1 expression in tumor administrated orally as once daily dose via gavage for 14 days by DAPI staining based immunofluorescence analysis; type: functional, cell-based; conditions: route po, time 14.0 day
4T1 [26] = assay: Antitumor activity against mouse 4T1 cells implanted in female BALB/c mouse model assessed as decrease in PAPR1 fluorescence intensity in tumor co-administrated orally with olaparib as once daily dose via gavage for 14 days by DAPI staining based immunofluorescence analysis; type: functional, cell-based; conditions: route po, time 14.0 day
Histone deacetylase 1 = Histone deacetylase 1 (Homo sapiens, UniProt Q13547); conditions: dose 500.0 nM, time 3.0 hrs
Chain of Histone deacetylase 1 (Q13547 whole entry): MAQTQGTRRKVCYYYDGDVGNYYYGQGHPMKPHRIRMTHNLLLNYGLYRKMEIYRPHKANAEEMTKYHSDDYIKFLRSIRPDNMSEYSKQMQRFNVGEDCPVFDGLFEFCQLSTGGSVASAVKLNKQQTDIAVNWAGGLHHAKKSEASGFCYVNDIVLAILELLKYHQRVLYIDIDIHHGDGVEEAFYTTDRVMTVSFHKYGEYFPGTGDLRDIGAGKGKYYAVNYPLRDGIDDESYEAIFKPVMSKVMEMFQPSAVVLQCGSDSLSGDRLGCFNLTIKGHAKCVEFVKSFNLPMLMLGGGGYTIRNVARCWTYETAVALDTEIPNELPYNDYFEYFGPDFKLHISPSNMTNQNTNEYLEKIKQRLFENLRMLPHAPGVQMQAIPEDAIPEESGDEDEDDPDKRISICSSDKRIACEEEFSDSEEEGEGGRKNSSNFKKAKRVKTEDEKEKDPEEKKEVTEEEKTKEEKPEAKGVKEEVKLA

Chain of Histone deacetylase 5 (Q9UQL6 whole entry): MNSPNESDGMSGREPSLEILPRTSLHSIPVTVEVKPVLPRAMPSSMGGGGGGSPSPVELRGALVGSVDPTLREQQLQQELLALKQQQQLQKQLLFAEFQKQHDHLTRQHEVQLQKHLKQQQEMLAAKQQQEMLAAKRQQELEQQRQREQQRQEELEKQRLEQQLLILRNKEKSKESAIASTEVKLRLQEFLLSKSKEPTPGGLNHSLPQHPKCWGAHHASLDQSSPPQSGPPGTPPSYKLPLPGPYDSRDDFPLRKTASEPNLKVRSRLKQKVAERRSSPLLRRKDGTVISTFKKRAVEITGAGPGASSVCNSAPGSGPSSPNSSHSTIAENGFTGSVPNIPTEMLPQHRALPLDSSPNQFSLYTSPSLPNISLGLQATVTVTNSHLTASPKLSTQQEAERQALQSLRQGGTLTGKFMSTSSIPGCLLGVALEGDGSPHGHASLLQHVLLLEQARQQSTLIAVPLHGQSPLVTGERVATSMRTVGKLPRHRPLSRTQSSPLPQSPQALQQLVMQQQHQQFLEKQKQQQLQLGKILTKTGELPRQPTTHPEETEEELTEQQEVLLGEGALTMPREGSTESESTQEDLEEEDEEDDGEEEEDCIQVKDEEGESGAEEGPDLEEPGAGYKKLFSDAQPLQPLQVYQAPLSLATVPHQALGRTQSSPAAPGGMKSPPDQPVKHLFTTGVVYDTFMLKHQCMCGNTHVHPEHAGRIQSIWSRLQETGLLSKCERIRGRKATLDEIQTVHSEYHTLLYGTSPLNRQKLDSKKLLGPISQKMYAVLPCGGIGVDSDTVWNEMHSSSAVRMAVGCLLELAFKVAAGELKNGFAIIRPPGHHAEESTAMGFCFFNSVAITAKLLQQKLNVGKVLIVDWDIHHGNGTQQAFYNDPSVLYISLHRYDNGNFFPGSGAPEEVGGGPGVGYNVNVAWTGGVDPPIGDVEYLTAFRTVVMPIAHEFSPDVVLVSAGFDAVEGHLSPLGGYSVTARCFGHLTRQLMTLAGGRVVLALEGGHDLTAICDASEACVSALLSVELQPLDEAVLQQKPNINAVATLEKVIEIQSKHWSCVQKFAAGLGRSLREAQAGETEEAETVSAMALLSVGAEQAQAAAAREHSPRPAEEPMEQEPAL

Question: Which IC50 (Histone deacetylase 5) does the source give for CCCNNC(=O)c1ccc(Cn2c3ccccc3c3c(-c4ccccn4)nc4ccccc4c32)cc1 here?
Answer: > 10 µM

Question: And the IC50 [1]?
Answer: 8.2 µM

Question: And the IC50 (Histone deacetylase 11)?
Answer: 8.87 µM

Question: What about the “Ratio AUC” value [2] of the same compound?
Answer: 96.65%

Question: What about the Activity (B16-F10 [3]) of the same compound?
Answer: Dose-dependent-effect

Question: What about the inhibition [4] of the same compound?
Answer: Active

Question: What about the Activity [5] of the same compound?
Answer: Dose-dependent-effect

Question: What about the DC50 [6] of the same compound?
Answer: 4.03 µM

Question: And the Activity [7]?
Answer: Active

Question: And the Activity (B16-F10 [8])?
Answer: Active

Question: And the Activity (B16-F10 [9])?
Answer: Active

Question: And the Activity (4T1 [10])?
Answer: Active

Question: And the AUC(0-inf) [11]?
Answer: 857 ng·h/mL

Question: And the “Ratio AUC” value [12]?
Answer: 99.95%

Question: What about the AUMCt [13] of the same compound?
Answer: 626.686 hr.hr.ug/L

Question: And the Cmax [14]?
Answer: 1040 ng/mL

Question: What about the AUC(0-inf) [15] of the same compound?
Answer: 8170 ng·h/mL

Question: And the MRT inf [16]?
Answer: 4.9 h

Question: And the “VRT(t)” value [17]?
Answer: 7.932 hr2

Question: And the half-life [18]?
Answer: 2.03 h

Question: What about the Cmax [19] of the same compound?
Answer: 1390 ng/mL

Question: What about the bioavailability [20] of the same compound?
Answer: 95.3%

Question: What about the inhibition in vivo at 50 mg/kg (B16-F10 [21]) of the same compound?
Answer: 67%

Question: And the inhibition in vivo at 50 mg/kg (B16-F10 [22])?
Answer: 80%

Question: And the Activity [23]?
Answer: Non-toxic

Question: What about the Activity (Mus musculus) of the same compound?
Answer: 32%

Question: What about the Activity (4T1 [24]) of the same compound?
Answer: Active

Question: And the Activity (4T1 [25])?
Answer: Active; Comparable To The Effect Of Olaparib

Question: What about the Activity (4T1 [26]) of the same compound?
Answer: Active

Question: And the inhibition (Histone deacetylase 1)?
Answer: 14%
